Tests used:
Format in all cases: cell-based
[1] = test system: MV-4-11; experiment: Cell viability (CCK-8) assay; conditions: 96 h, CCK-8
Protocol: (§1) The plated at a density of 15,000 cells per well, and each well contained 100 µL of medium. Subsequently, different compounds (MGD-AX, MGD-BX, MGD-CX) were added to each well. […] To evaluate the antiproliferative effects of these compounds, the Cell Counting Kit-8 (CCK-8, #CX007, Epizyme, Shanghai, China) was used. All procedures were carried out in strict accordance with the manufacturer’s instructions (Dojindo Laboratories, Mamoto Ken, Japan).

[2] = test system: NCI-H929; experiment: Cell viability (CCK-8) assay
Protocol: as §1

[3] = test system: Ocl-Ly3; experiment: Cell viability (CCK-8) assay; conditions: 96 h, CCK-8
Protocol: as §1

[4] = biological target: T1, IKZF1-HiBiT (Homo sapiens, UniProt Q13422+Q96SW2); experiment: Quantitative degradation assay using the HiBiT system (HEK293T); conditions: HEK-293T; HEK293T IKZF1-HiBiT, 24 h; read-out: maximal degradation (Dmax) on IKZF1
T1 construct: expressed in transfected cells; host or cells: HEK293T
T1 sequence (Q13422 whole entry): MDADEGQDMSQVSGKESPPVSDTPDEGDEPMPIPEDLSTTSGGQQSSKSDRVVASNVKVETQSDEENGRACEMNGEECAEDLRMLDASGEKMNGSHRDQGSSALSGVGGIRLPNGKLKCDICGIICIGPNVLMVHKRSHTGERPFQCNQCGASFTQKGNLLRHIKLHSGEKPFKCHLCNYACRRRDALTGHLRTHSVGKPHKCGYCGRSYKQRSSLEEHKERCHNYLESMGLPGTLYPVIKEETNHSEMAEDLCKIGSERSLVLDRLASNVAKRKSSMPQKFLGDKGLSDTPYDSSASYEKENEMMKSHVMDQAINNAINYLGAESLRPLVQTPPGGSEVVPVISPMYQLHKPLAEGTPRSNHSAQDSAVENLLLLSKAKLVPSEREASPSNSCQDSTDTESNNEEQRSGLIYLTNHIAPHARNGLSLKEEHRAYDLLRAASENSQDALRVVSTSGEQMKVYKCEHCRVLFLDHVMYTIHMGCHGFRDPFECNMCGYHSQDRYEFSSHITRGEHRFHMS
T1 sequence (Q96SW2 whole entry): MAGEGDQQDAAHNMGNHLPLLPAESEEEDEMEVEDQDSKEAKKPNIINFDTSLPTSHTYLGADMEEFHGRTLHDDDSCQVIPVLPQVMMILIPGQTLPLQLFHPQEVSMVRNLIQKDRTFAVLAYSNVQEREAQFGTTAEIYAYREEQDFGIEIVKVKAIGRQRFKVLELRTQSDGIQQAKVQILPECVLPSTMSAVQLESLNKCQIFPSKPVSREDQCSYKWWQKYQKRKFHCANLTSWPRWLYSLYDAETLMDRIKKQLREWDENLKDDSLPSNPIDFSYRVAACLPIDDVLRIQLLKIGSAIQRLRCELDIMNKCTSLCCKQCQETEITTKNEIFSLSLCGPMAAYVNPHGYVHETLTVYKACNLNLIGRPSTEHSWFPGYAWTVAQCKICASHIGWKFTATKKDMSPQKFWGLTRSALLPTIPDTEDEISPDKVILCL
T1 sequence (Q16531 whole entry partner): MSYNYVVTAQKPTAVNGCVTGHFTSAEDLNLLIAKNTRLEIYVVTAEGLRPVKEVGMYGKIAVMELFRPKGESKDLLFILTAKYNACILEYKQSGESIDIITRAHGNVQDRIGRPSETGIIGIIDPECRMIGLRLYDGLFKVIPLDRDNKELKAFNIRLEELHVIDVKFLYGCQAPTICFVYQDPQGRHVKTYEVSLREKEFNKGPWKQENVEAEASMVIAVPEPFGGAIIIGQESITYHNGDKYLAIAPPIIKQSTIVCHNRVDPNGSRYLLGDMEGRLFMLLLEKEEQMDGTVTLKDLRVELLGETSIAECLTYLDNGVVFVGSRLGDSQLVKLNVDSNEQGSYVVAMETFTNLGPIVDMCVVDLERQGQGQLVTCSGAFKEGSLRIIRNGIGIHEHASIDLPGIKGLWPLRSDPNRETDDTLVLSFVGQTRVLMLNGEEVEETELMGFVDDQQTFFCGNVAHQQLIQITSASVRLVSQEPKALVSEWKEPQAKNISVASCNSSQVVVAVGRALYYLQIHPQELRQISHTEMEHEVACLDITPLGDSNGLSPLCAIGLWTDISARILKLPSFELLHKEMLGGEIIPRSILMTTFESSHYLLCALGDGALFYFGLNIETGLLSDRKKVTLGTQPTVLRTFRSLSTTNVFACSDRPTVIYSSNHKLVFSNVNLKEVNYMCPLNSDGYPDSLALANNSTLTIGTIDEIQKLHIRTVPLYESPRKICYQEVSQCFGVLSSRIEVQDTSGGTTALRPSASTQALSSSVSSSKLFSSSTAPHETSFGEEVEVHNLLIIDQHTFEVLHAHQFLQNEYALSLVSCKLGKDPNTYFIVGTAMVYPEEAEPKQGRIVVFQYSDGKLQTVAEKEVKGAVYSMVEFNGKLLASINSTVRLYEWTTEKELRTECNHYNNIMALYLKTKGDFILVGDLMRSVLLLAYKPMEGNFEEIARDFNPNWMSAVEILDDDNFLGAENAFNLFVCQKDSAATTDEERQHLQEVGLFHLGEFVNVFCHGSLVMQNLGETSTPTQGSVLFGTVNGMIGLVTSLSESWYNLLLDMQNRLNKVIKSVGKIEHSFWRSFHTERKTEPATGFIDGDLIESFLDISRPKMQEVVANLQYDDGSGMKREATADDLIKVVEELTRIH
Protocol: (§2) An in vitro quantitative degradation assay utilizing the HiBiT system was carried out as previously described. To evaluate the degradation of IKZF1, IKZF2, and IKZF3 proteins, HEK293T cell lines stably expressing IKZF1-, IKZF2-, IKZF3-, GSPT1- or CK1α-HiBiT were cultured in 96-well plates at 12,000 cells per well. […] After the treatment, cell lysis was carried out using the Nano-Glo HiBiT Lytic Detection System (#N3040, Promega). All lysis operations were strictly carried out according to the manufacturer’s specific protocol. Then, the SpectraMax iD3 instrument (Molecular Devices, San Jose, CA, USA) was used to detect the luminescent signals released by the HiBiT-tagged neosubstrates.

[5] = biological target: T2, IKZF3-HiBiT (Homo sapiens, UniProt Q96SW2+Q9UKT9); experiment: as above; conditions: HEK-293T; HEK293T IKZF3-HiBiT, 24 h; read-out: maximal degradation (Dmax) on IKZF3
T2 construct: expressed in transfected cells; host or cells: HEK293T
T2 sequence (Q9UKT9 whole entry): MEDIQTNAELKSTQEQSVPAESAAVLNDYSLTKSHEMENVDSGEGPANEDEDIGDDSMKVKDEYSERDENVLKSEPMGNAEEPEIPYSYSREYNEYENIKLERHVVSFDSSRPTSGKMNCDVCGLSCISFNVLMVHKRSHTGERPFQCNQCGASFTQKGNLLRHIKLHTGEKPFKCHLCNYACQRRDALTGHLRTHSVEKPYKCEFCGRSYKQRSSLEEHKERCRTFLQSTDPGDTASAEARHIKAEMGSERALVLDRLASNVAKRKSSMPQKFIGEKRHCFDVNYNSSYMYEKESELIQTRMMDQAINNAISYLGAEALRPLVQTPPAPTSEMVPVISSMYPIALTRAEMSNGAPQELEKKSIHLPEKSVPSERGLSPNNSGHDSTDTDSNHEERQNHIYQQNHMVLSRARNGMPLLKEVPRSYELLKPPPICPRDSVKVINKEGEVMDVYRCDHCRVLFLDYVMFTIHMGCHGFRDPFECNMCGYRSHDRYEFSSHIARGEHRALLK
T2 sequence (Q96SW2 whole entry): as the sequence (Q96SW2 whole entry) above
T2 sequence (Q16531 whole entry partner): as the sequence (Q16531 whole entry partner) above
Protocol: as §2

| IC50 ([1]; Homo sapiens, MV4-11, 96 h) [µM] | IC50 ([2]; Homo sapiens, NCI-H929, 96 h) [µM] | IC50 [1] [µM] | IC50 ([2]; 96 h) [µM] | Dmax [4] [%] | Dmax [5] [%] | Molecule | IC50 [3] [µM] |
| --- | --- | --- | --- | --- | --- | --- | --- |
| 1.93 ± 0.18 | 2.34 ± 0.22 |  |  |  |  | O=C1CCC(NC(=O)c2cccc(CN3CCOCC3=O)n2)C(=O)N1 (centres unmarked) [MGD-B9, N-(2,6-dioxopiperidin-3-yl)-6-((3-oxomorpholino)methyl)picolinamide] | 9.35 ± 0.89 |
| 7.34 ± 0.7 | 10.3 ± 0.98 |  |  |  |  | O=C1CCC(NC(=O)c2cccc(CNC3CC3)c2)C(=O)N1 (centres unmarked) [MGD-A1, 3-((cyclopropylamino)methyl)-N-(2,6-dioxopiperidin-3-yl)benzamide] | > 33 |
| 6.03 ± 0.58 | 5.39 ± 0.51 |  |  |  |  | CC1CCCCN1Cc1cccc(C(=O)NC2CCC(=O)NC2=O)c1 (centres unmarked) [MGD-A3, N-(2,6-dioxopiperidin-3-yl)-3-((2-methylpiperidin-1-yl)methyl)benzamide] | 7.27 ± 0.69 |
|  |  | 7.36 ± 0.7 | 6.91 ± 0.66 |  |  | N-(2,6-dioxopiperidin-3-yl)-2-fluoro-3-(piperidin-1-ylmethyl)benzamide [MGD-C1] | 12.6 ± 1.2 |
| 6.78 ± 0.65 | 8.5 ± 0.81 |  |  |  |  | O=C1CCC(NC(=O)c2cccc(CN3CCCCC3)n2)C(=O)N1 (centres unmarked) [MGD-B2, N-(2,6-dioxopiperidin-3-yl)-6-(piperidin-1-ylmethyl)picolinamide] | > 33 |
| 2.22 ± 0.21 | 2.04 ± 0.19 |  |  |  |  | O=C1CCC(NC(=O)c2cccc(CN3CCCC3=O)c2F)C(=O)N1 (centres unmarked) [MGD-C5, N-(2,6-dioxopiperidin-3-yl)-2-fluoro-3-((2-oxopyrrolidin-1-yl)methyl)benzamide] | 5.05 ± 0.48 |
| 0.85 | 0.2 |  |  | 80.4 | 83.1 | Cc1nc2cccc(N)c2c(=O)n1C1CCC(=O)NC1=O (centres unmarked) [Avadomide, reference compound] | 15.5 |
| 0.8 ± 0.1 | 0.9 ± 0.13 |  |  |  |  | CCN1CCN(Cc2cccc(C(=O)NC3CCC(=O)NC3=O)c2)CC1 (centres unmarked) [MGD-A8, N-(2,6-dioxopiperidin-3-yl)-3-((4-ethylpiperazin-1-yl)methyl)benzamide] | 4.12 ± 0.39 |
| 0.68 ± 0.07 | 0.93 ± 0.15 |  |  |  |  | O=C1CCC(NC(=O)c2cccc(CN3CCOCC3=O)c2F)C(=O)N1 (centres unmarked) [MGD-C7, N-(2,6-dioxopiperidin-3-yl)-2-fluoro-3-((3-oxomorpholino)methyl)benzamide] | 2.11 ± 0.2 |
| 1.58 ± 0.47 | 2.77 ± 0.36 |  |  |  |  | O=C1CCC(NC(=O)c2cccc(CN3CCSCC3)n2)C(=O)N1 (centres unmarked) [MGD-B5, N-(2,6-dioxopiperidin-3-yl)-6-(thiomorpholinomethyl)picolinamide] | 4.68 ± 2.44 |
| 26.5 ± 2.52 | 9.86 ± 0.94 |  |  |  |  | O=C1CCC(N2C(=O)c3ccccc3C2=O)C(=O)N1 (centres unmarked) [Thalidomide, reference compound] | > 33 |
| 3.44 ± 0.33 | 3.02 ± 0.38 |  |  |  |  | CC1CCCC(C)N1Cc1cccc(C(=O)NC2CCC(=O)NC2=O)c1 (centres unmarked) [MGD-A6, 3-((2,6-dimethylpiperidin-1-yl)methyl)-N-(2,6-dioxopiperidin-3-yl)benzamide] | 5.9 ± 0.56 |
| 17.9 ± 1.7 | 7.36 ± 0.7 |  |  |  |  | Nc1cccc2c1CN(C1CCC(=O)NC1=O)C2=O (centres unmarked) [Lenalidomide, reference compound] | 27.6 ± 2.63 |
| 1.63 ± 0.16 | 1.33 ± 0.13 |  |  |  |  | O=C1CCC(NC(=O)c2cccc(CN3CCCCC3=O)c2F)C(=O)N1 (centres unmarked) [MGD-C6, N-(2,6-dioxopiperidin-3-yl)-2-fluoro-3-((2-oxopiperidin-1-yl)methyl)benzamide] | 5.95 ± 0.57 |
| 5.65 ± 0.54 | 3.21 ± 0.31 |  |  |  |  | O=C1CCC(NC(=O)c2cccc(CN3CCCCC3=O)n2)C(=O)N1 (centres unmarked) [MGD-B7, N-(2,6-dioxopiperidin-3-yl)-6-((2-oxopiperidin-1-yl)methyl)picolinamide] | 15.2 ± 1.44 |
| 15 ± 1.42 | 7.9 ± 0.75 |  |  |  |  | O=C1CCC(NC(=O)c2cccc(CN3CCCC3)n2)C(=O)N1 (centres unmarked) [MGD-B1, N-(2,6-dioxopiperidin-3-yl)-6-(pyrrolidin-1-ylmethyl)picolinamide] | 22.4 ± 2.13 |

| IC50 ([1]; Homo sapiens, MV4-11, 96 h) [µM] | IC50 ([2]; Homo sapiens, NCI-H929, 96 h) [µM] | IC50 [1] [µM] | IC50 ([2]; 96 h) [µM] | Dmax [4] [%] | Dmax [5] [%] | Molecule | IC50 [3] [µM] |
| --- | --- | --- | --- | --- | --- | --- | --- |
|  |  | 1.9 ± 0.18 | 2.11 ± 0.2 |  |  | N-(2,6-dioxopiperidin-3-yl)-3-(thiomorpholinomethyl)cyclohexa-1,3-diene-1-carboxamide [MGD-A9] | 5.44 ± 0.52 |
| 8.3 ± 0.79 | 12.7 ± 1.21 |  |  |  |  | O=C1CCC(NC(=O)c2cccc(CNCC3CC3)c2)C(=O)N1 (centres unmarked) [MGD-A2, 3-(((cyclopropylmethyl)amino)methyl)-N-(2,6-dioxopiperidin-3-yl)benzamide] | 21.3 ± 2.03 |
| 3.02 ± 0.29 | 4.65 ± 0.44 |  |  |  |  | O=C1CCC(NC(=O)c2cccc(CN3CCOCC3)n2)C(=O)N1 (centres unmarked) [MGD-B4, N-(2,6-dioxopiperidin-3-yl)-6-(morpholinomethyl)picolinamide] | 15 ± 1.42 |
| 9.26 ± 0.88 | 10.3 ± 0.98 |  |  |  |  | CC1CCCC(C)N1C(=O)c1cccc(C(=O)NC2CCC(=O)NC2=O)c1 (centres unmarked) [MGD-A13, 3-(2,6-dimethylpiperidine-1-carbonyl)-N-(2,6-dioxopiperidin-3-yl)benzamide] | 17.2 ± 1.64 |
| 3.34 ± 0.32 | 4.89 ± 0.47 |  |  |  |  | O=C1CCC(NC(=O)c2cccc(CN3CCCC3=O)n2)C(=O)N1 (centres unmarked) [MGD-B6, N-(2,6-dioxopiperidin-3-yl)-6-((2-oxopyrrolidin-1-yl)methyl)picolinamide] | 27.5 ± 2.62 |
| 1.33 ± 0.13 | 1.77 ± 0.17 |  |  |  |  | CN1CCN(Cc2cccc(C(=O)NC3CCC(=O)NC3=O)n2)C(=O)C1 (centres unmarked) [MGD-B8, N-(2,6-dioxopiperidin-3-yl)-6-((4-methyl-2-oxopiperazin-1-yl)methyl)picolinamide] | 8.43 ± 0.8 |
| 2.03 ± 0.19 | 2.88 ± 0.28 |  |  |  |  | CC1CCN(Cc2cccc(C(=O)NC3CCC(=O)NC3=O)c2)CC1 (centres unmarked) [MGD-A5, N-(2,6-dioxopiperidin-3-yl)-3-((4-methylpiperidin-1-yl)methyl)benzamide] | 4.03 ± 0.38 |
| 3.11 ± 0.3 | 4.56 ± 0.44 |  |  |  |  | CC1CCCN(Cc2cccc(C(=O)NC3CCC(=O)NC3=O)c2)C1 (centres unmarked) [MGD-A4, N-(2,6-dioxopiperidin-3-yl)-3-((3-methylpiperidin-1-yl)methyl)benzamide] | 6.33 ± 0.6 |
| 2.43 ± 0.33 | 1.79 ± 0.27 |  |  |  |  | O=C1CCC(NC(=O)c2cccc(CN3CCSCC3)c2F)C(=O)N1 (centres unmarked) [MGD-C4, N-(2,6-dioxopiperidin-3-yl)-2-fluoro-3-(thiomorpholinomethyl)benzamide] | 5.01 ± 0.48 |
| 4.45 ± 0.42 | 6.9 ± 0.66 |  |  |  |  | O=C1CCC(NC(=O)c2cccc(C(=O)N3CCSCC3)c2)C(=O)N1 (centres unmarked) [MGD-A15, N-(2,6-dioxopiperidin-3-yl)-3-(thiomorpholine-4-carbonyl)benzamide] | 9.43 ± 0.9 |
|  |  | 1.73 ± 0.17 | 1.23 ± 0.12 |  |  | N-(2,6-dioxopiperidin-3-yl)-2-fluoro-3-((2-oxopiperidin-1-yl)methyl)benzamide [MGD-C8] | 3.28 ± 0.31 |
| 0.72 ± 0.13 | 0.92 ± 0.12 |  |  |  |  | CN1CCN(Cc2cccc(C(=O)NC3CCC(=O)NC3=O)n2)CC1 (centres unmarked) [MGD-B3, N-(2,6-dioxopiperidin-3-yl)-6-((4-methylpiperazin-1-yl)methyl)picolinamide] | 2.03 ± 0.39 |
| 0.93 ± 0.048 | 1.98 ± 0.19 |  |  |  |  | O=C1CCC(NC(=O)c2cccc(CN3CCOCC3)c2F)C(=O)N1 (centres unmarked) [MGD-C3, N-(2,6-dioxopiperidin-3-yl)-2-fluoro-3-(morpholinomethyl)benzamide] | 2.39 ± 0.23 |
| 5.54 ± 0.53 | 4.32 ± 0.41 |  |  |  |  | O=C1CCC(NC(=O)c2cccc(CN3CCSCC3=O)n2)C(=O)N1 (centres unmarked) [MGD-B10, N-(2,6-dioxopiperidin-3-yl)-6-((3-oxothiomorpholino)methyl)picolinamide] | 13.2 ± 1.26 |
| 0.54 ± 0.05 | 0.77 ± 0.04 |  |  |  |  | CN1CCN(Cc2cccc(C(=O)NC3CCC(=O)NC3=O)c2F)CC1 (centres unmarked) [MGD-C2, N-(2,6-dioxopiperidin-3-yl)-2-fluoro-3-((4-methylpiperazin-1-yl)methyl)benzamide] | 1.64 ± 0.37 |
